Peptide text beside a SMILES is read from it.
Tests used:
Protein Mdm4 [1] = biological target: T1, Protein Mdm4 (Homo sapiens, UniProt O15151); test: Inhibition of MDM4 assessed as dissociation constant
T1 sequence (O15151 whole entry): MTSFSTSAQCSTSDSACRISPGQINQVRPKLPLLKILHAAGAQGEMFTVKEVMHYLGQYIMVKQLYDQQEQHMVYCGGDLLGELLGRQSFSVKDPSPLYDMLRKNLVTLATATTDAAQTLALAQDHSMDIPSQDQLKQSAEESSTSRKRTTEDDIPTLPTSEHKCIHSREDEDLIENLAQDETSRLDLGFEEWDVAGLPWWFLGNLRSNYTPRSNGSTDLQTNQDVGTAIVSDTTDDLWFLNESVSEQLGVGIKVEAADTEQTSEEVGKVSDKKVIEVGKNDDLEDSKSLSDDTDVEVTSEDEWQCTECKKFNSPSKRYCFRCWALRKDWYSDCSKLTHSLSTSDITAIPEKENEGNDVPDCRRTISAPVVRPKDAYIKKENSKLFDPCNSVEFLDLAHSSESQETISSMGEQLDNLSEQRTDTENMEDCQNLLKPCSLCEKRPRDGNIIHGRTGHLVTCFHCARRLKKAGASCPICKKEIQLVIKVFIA

MCF7 [2] = test: Anticancer activity against […] relative to contol; assay type: functional; settings: read-out: TGI
[3] = biological target: T2, Tumour suppressor protein p53/Mdm4 (Homo sapiens, UniProt O15151+P04637); test: Inhibition of human MDM4/p53 interaction by TR-FRET assay; assay type: protein assay
[4] = biological target: T3, E3 ubiquitin-protein ligase Mdm2 (Homo sapiens, UniProt Q00987); test: Inhibition of human MDM2 by TR-FRET assay
Protein Mdm4 [5] = biological target: T1, Protein Mdm4; test: Inhibition of human MDM4 by TR-FRET assay
Protein Mdm4 [6] = biological target: T1, Protein Mdm4; test: Inhibition of human MDM4 by ELISA assay
Protein Mdm4 [7] = biological target: T1, Protein Mdm4; test: Inhibition of human MDM4
[8] = biological target: T3, E3 ubiquitin-protein ligase Mdm2; test: Inhibition of human MDM2
Protein Mdm4 [9] = biological target: T1, Protein Mdm4; test: Inhibition of human his-tagged MDM4 assessed as dissociation constant by ITC assay
[10] = biological target: T2, Tumour suppressor protein p53/Mdm4; test: Inhibition of human MDM4/p53 interaction by FP assay; assay type: protein assay
[11] = biological target: T3, E3 ubiquitin-protein ligase Mdm2; test: Binding affinity to human MDM2 assessed as dissociation constant
Protein Mdm4 [12] = biological target: T1, Protein Mdm4; test: Binding affinity to human MDM4 assessed as inhibition constant
MCF7 [13] = test: Anticancer activity against human MCF7 cells assessed as cell viability at 30 mg/kg by MTT assay relative to contol; settings: MCF7, read-out: TGI
[14] = biological target: T2, Tumour suppressor protein p53/Mdm4; test: Inhibition of human MDM4/p53 interaction by SPR analysis; assay type: protein assay

T2 sequence (P04637 whole entry, one chain of several): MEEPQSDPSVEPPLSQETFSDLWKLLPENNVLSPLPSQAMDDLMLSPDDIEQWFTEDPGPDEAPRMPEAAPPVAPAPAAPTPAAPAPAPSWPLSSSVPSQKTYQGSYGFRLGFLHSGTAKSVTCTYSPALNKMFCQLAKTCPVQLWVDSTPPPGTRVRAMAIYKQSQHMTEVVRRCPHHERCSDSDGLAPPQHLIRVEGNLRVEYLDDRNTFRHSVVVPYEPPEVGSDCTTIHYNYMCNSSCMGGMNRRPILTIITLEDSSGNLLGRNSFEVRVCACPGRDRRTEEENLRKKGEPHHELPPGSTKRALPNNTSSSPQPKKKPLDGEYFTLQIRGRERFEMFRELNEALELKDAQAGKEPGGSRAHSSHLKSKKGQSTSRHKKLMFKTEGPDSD
T3 sequence (Q00987 whole entry): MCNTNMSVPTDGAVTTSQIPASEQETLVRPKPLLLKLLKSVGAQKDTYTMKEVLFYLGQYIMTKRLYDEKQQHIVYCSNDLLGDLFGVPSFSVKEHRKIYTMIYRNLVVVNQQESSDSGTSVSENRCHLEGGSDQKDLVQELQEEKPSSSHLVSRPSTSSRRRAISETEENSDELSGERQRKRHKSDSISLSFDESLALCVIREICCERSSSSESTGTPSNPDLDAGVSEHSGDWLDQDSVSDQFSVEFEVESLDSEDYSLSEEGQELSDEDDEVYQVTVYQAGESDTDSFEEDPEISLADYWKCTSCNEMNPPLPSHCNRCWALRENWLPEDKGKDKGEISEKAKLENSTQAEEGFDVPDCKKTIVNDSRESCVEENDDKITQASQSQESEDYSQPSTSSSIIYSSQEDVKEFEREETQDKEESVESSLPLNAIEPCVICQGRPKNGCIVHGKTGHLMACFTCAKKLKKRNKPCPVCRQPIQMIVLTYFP

COc1cc(C(=O)O)ccc1NC(=O)[C@@H]1N[C@@H](CC(C)(C)C)[C@](C#N)(c2ccc(Cl)cc2F)[C@H]1c1cccc(Cl)c1F [IDASANUTLIN]
Kd (Protein Mdm4 [1]): < 100 nM

CCOc1cc(C(C)(C)C)ccc1C1=N[C@@](C)(c2ccc(Cl)cc2)[C@@](C)(c2ccc(Cl)cc2)N1C(=O)N1CCN(CCCS(C)(=O)=O)CC1 [RO-5045337]
inhibition in vivo (MCF7 [2]): 61%

COc1ncc(-c2nc3c(n2C(C)C)[C@H](c2ccc(C#N)cc2)N([C@@H](C)c2cccc(Cl)c2)C3=O)c(OC)n1
IC50 [3]: 580 nM

COc1cccc2c(C(=O)N[C@H]3CCN(c4ccc(C)cc4)C3)c[nH]c12
IC50 [4]: > 50000 nM

C[C@@H](c1cccc(Cl)c1)n1cnc(-c2ccccc2)c1-c1c(C(=O)NCCN2CCN(C3CCCCC3)CC2)[nH]c2cc(Cl)ccc12
IC50 (Protein Mdm4 [5]): 145 nM

H-ETFEHWWSQLLS-OH
IC50 (Protein Mdm4 [6]): 110 nM

COOc1cc(/C=C2\C(=O)N(c3ccccc3)N=C2C)cc(Cl)c1OCC(=O)OC
EC50 (Protein Mdm4 [7]): 2300 nM
EC50 [8]: 26000 nM

CC(C)(C)Oc1cc(C(=O)CC(N)=O)ccc1C1=N[C@@H](c2ccc(C(=O)O)cc2)[C@@H](c2c[nH]c3ccccc23)N1C(=O)N1CCNC(=O)C1
Kd (Protein Mdm4 [9]): 27 nM

Cc1cc(Cl)ccc1NCc1ccc(CN(C=O)C(C(=O)NC(C)(C)C)c2c(C(=O)O)[nH]c3cc(Cl)ccc23)cc1 (stereo unspecified)
Ki [10]: 3730 nM

O=C(CN(Cc1ccc(Cl)cc1)C(=O)c1cc2ccccc2[nH]1)NC1CCCCC1
Ki [11]: 5500 nM

COc1ncc(-c2nc3c(n2C(C)C)C(c2ccc(Cl)cc2)N(c2cc(Cl)cn(C)c2=O)C3=O)c(OC)n1 (stereo unspecified)
IC50 (Protein Mdm4 [12]): 3000 nM

COc1nc(N(C)C)ncc1-c1nc2c(n1C(C)C)[C@H](c1ccc(C#N)cc1)N(c1cc(Cl)cn(C)c1=O)C2=O
IC50 [3]: 1300 nM

CC(=O)N[C@@H](CC(C)C)C(=O)N[C@H](C(=O)N[C@@H](Cc1ccccc1)C(=O)N[C@]1(C)CCCCCC/C=C/CCC[C@@](C)(C(=O)N[C@@H](C)C(=O)N[C@@H](C)C(=O)N[C@@H](C)C(=O)N[C@@H](C)C(=O)N[C@H](C)C(N)=O)NC(=O)[C@H](CC(C)C)NC(=O)[C@H](CCC(N)=O)NC(=O)[C@H](C)NC(=O)[C@H](Cc2c[nH]c3ccccc23)NC(=O)[C@H](Cc2ccc(O)cc2)NC(=O)[C@H](C)NC1=O)[C@@H](C)O
inhibition in vivo at 30 mg/kg (MCF7 [13]): 61%

C[C@@H](c1cccc(Cl)c1)n1cnc(-c2ccccc2)c1-c1c(C(=O)Nc2cc(C(=O)O)ccc2N2CCC(N3CCCOC3=O)CC2)[nH]c2cc(Cl)ccc12
IC50 (Protein Mdm4 [5]): 17 nM

CC(C)C[C@H](NC(=O)[C@H](CS)NC(=O)[C@H](CCCNC(=N)N)NC(=O)[C@H](Cc1c[nH]c2ccccc12)NC(=O)[C@H](Cc1ccc(O)cc1)NC(=O)[C@H](CS)NC(=O)[C@H](CC(C)C)NC(=O)[C@H](Cc1ccccc1)NC(=O)[C@@H](NC(=O)[C@H](CCC(=O)O)NC(=O)[C@@H]1CCCN1C(=O)[C@H](C)NC(=O)[C@H](CCCCN)NC(=O)[C@H](CS)NC(=O)[C@H](CC(N)=O)NC(=O)[C@@H](N)CS)[C@@H](C)O)C(=O)N[C@@H](CCC(N)=O)C(=O)N[C@@H](Cc1c[nH]cn1)C(N)=O (H-CNCKAPETFLCYWRCLQH-NH2)
IC50 [14]: 11.4 nM

Reference: ChEMBL document CHEMBL5223086, “Recent Progress and Clinical Development of Inhibitors that Block MDM4/p53 Protein-Protein Interactions” (J Med Chem, 2021)
